Values quoted from earlier work, collected in US9302977B2, “Method of making monomethyl fumarate” (XenoPort, Inc., priority 2013, dated 2016).
Counter-ions that a name gives are not always drawn.

Tests used:
[1] = system: TNF-induced NF-κB signaling
[2] = as an impurity

In the case of `COC(=O)/C=C/C(=O)OC` [DMF, dimethyl fumarate], the aqueous solubility is given as “poor”, the “TNF-induced DNA binding of NF-κB proteins” value [1] is given as “inhibits” and the “TNF-induced nuclear entry of activated NF-κB proteins” value [1] is given as “inhibits”. For the same compound, the “TNF-induced tissue factor mRNA and protein expression” value [1] was “inhibits”.

For `COS(=O)(=O)OC` [Dimethyl sulfate], the genotoxicity [2] is listed as “genotoxic”.
